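In this assay, cells in 96-well plates receive the compound at five concentrations for 48 hours. Endpoints are linearly interpolated between the surrounding concentrations. Here, GI50 denotes the concentration required for 50% inhibition of growth.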 Active and inactive are the calls of the source. No stated cut-off is given here; in the data, active = GI50 up to about 1.1 µM and inactive = higher.
Key:
Experiment in all cases: NCI-60 cell line screen, 48 h
SK-MEL-5 = tested on: SK-MEL-5
SNB-19 = tested on: SNB-19
NCI-H226 = tested on: NCI-H226
BT-549 = tested on: BT-549
A549 = tested on: A549
SNB-75 = tested on: SNB-75
MCF7 = tested on: MCF7
A498 = tested on: A498
HOP-92 = tested on: HOP-92
EKVX = tested on: EKVX
786-0 = tested on: 786-0
DU-145 = tested on: DU-145
HCT-15 = tested on: HCT-15
HT-29 = tested on: HT-29
HCC 2998 = tested on: HCC 2998
MDA-MB-435 = tested on: MDA-MB-435
OVCAR-3 = tested on: OVCAR-3
SF-295 = tested on: SF-295
LOX IMVI = tested on: LOX IMVI
OVCAR-4 = tested on: OVCAR-4
UO-31 = tested on: UO-31
ACHN = tested on: ACHN
U-251 = tested on: U-251
HL-60 = tested on: HL-60
HCT-116 = tested on: HCT-116
SW-620 = tested on: SW-620
OVCAR-5 = tested on: OVCAR-5
OVCAR-8 = tested on: OVCAR-8
SK-MEL-28 = tested on: SK-MEL-28
NCI-H522 = tested on: NCI-H522
CCRF-CEM = tested on: CCRF-CEM
T47D = tested on: T47D
RPMI-8226 = tested on: RPMI-8226
UACC-257 = tested on: UACC-257
MOLT-4 = tested on: MOLT-4
SR = tested on: SR
COLO 205 = tested on: COLO 205
RXF 393 = tested on: RXF 393
NCI-H23 = tested on: NCI-H23
PC-3 = tested on: PC-3
TK-10 = tested on: TK-10
SK-MEL-2 = tested on: SK-MEL-2
HOP-62 = tested on: HOP-62
K562 = tested on: K562
SF-539 = tested on: SF-539
M14 = tested on: M14
IGROV-1 = tested on: IGROV-1
MDA-N = tested on: MDA-N
MDA-MB-231 = tested on: MDA-MB-231
SF-268 = tested on: SF-268
NCI-H460 = tested on: NCI-H460
SK-OV-3 = tested on: SK-OV-3
Malme-3M = tested on: Malme-3M
KM12 = tested on: KM12
SN12C = tested on: SN12C
NCI/ADR-RES = tested on: NCI/ADR-RES
CAKI-1 = tested on: CAKI-1
Hs-578T = tested on: Hs-578T
UACC-62 = tested on: UACC-62

With `COC(=O)/C=C(/C(=O)OC)c1cc2ccc3c([nH]c4ccccc43)c(C)c-2c1` the GI50 (SK-MEL-5) was 2.88 µM (inactive), the GI50 (SNB-19) was 9.29 µM (inactive) and the GI50 (NCI-H226) was 5.98 µM (inactive). The GI50 (BT-549) was 4.78 µM (inactive), the GI50 (A549) was 4.73 µM (inactive) and the GI50 (SNB-75) was 5.26 µM (inactive). For the same compound, the GI50 (MCF7) was 2.79 µM (inactive), the GI50 (A498) was 8.04 µM (inactive) and the GI50 (HOP-92) was 1.21 µM (inactive). For the same compound, the GI50 (EKVX) was 3.76 µM (inactive), the GI50 (786-0) was 4.78 µM (inactive) and the GI50 (DU-145) was 9.73 µM (inactive). The GI50 (HCT-15) was 3.94 µM, the GI50 (HT-29) was 2.78 µM (inactive) and the GI50 (HCC 2998) was 3.92 µM (inactive). The GI50 (MDA-MB-435) was 3.94 µM (inactive), the GI50 (OVCAR-3) was 3.4 µM (inactive) and the GI50 (SF-295) was 4.12 µM (inactive). For the same compound, the GI50 (LOX IMVI) was 3.66 µM (inactive), the GI50 (OVCAR-4) was 4.95 µM (inactive) and the GI50 (UO-31) was 3.79 µM (inactive). For the same compound, the GI50 (ACHN) was 6.61 µM (inactive), the GI50 (U-251) was 3.85 µM (inactive) and the GI50 (HL-60) was 3.15 µM (inactive). For the same compound, the GI50 (HCT-116) was 4.49 µM (inactive), the GI50 (SW-620) was 4.93 µM (inactive) and the GI50 (OVCAR-5) was 3.56 µM (inactive). The GI50 (OVCAR-8) was 3.03 µM (inactive), the GI50 (SK-MEL-28) was 5.55 µM (inactive) and the GI50 (NCI-H522) was 2.54 µM (inactive). The GI50 (CCRF-CEM) was 2.9 µM (inactive), the GI50 (T47D) was 3.6 µM (inactive) and the GI50 (RPMI-8226) was 3.72 µM (inactive). For the same compound, the GI50 (UACC-257) was 6.95 µM (inactive), the GI50 (MOLT-4) was 3.13 µM (inactive) and the GI50 (SR) was 2.74 µM (inactive). For the same compound, the GI50 (COLO 205) was 1.75 µM (inactive), the GI50 (RXF 393) was 7.31 µM (inactive) and the GI50 (NCI-H23) was 3.96 µM (inactive). The GI50 (PC-3) was 2.68 µM (inactive), the GI50 (TK-10) was 15.2 µM (inactive) and the GI50 (SK-MEL-2) was 7.5 µM (inactive). For the same compound, the GI50 (HOP-62) was 12.1 µM (inactive), the GI50 (K562) was 2.54 µM (inactive) and the GI50 (SF-539) was 11.4 µM (inactive). The GI50 (M14) was 4.37 µM (inactive), the GI50 (IGROV-1) was 2.74 µM (inactive) and the GI50 (MDA-N) was 2.9 µM (inactive). The GI50 (MDA-MB-231) was 3.8 µM (inactive), the GI50 (SF-268) was 4.26 µM (inactive) and the GI50 (NCI-H460) was 4.45 µM (inactive). The GI50 (SK-OV-3) was 7.69 µM (inactive), the GI50 (Malme-3M) was 5.21 µM (inactive) and the GI50 (KM12) was 3.73 µM (inactive). The GI50 (SN12C) was 10.1 µM (inactive), the GI50 (NCI/ADR-RES) was 3.46 µM (inactive) and the GI50 (CAKI-1) was 6.32 µM (inactive). The GI50 (Hs-578T) was 3.41 µM (inactive) and the GI50 (UACC-62) was 4.66 µM (inactive).
`[N-]=[N+]=Nc1ccc2c(c1)Sc1ccccc1N2CCCCN1CCN(Cc2ccc(C(=O)c3ccccc3)cc2)CC1` was tested, and the GI50 (SK-MEL-5) was 2.13 µM (inactive), the GI50 (SNB-19) was > 100 µM (inactive) and the GI50 (NCI-H226) was 20.4 µM (inactive). The GI50 (BT-549) was > 20.7 µM (inactive), the GI50 (A549) was > 92.5 µM (inactive) and the GI50 (SNB-75) was 4.32 µM (inactive). The GI50 (MCF7) was 2.64 µM (inactive), the GI50 (A498) was 17.4 µM (inactive) and the GI50 (HOP-92) was 2.29 µM (inactive). For the same compound, the GI50 (EKVX) was 6.67 µM (inactive), the GI50 (786-0) was 5.24 µM (inactive) and the GI50 (DU-145) was > 100 µM (inactive). The GI50 (HCT-15) was 3.47 µM, the GI50 (HT-29) was 1.46 µM (inactive) and the GI50 (HCC 2998) was 2.13 µM (inactive). For the same compound, the GI50 (MDA-MB-435) was 4.92 µM (inactive), the GI50 (OVCAR-3) was 3.72 µM (inactive) and the GI50 (SF-295) was 23.4 µM (inactive). For the same compound, the GI50 (LOX IMVI) was 1.76 µM (inactive), the GI50 (OVCAR-4) was 4.6 µM (inactive) and the GI50 (UO-31) was 2.51 µM (inactive). The GI50 (ACHN) was 6.46 µM (inactive), the GI50 (U-251) was 5.74 µM (inactive) and the GI50 (HL-60) was 2.47 µM (inactive). For the same compound, the GI50 (HCT-116) was 3.43 µM (inactive), the GI50 (SW-620) was 6.22 µM (inactive) and the GI50 (OVCAR-5) was 4.16 µM (inactive). For the same compound, the GI50 (OVCAR-8) was 3.4 µM (inactive), the GI50 (SK-MEL-28) was 1.96 µM (inactive) and the GI50 (NCI-H522) was 1.85 µM (inactive). The GI50 (CCRF-CEM) was 5.97 µM (inactive), the GI50 (T47D) was 3.39 µM (inactive) and the GI50 (RPMI-8226) was 3.86 µM (inactive). The GI50 (UACC-257) was 2.04 µM (inactive), the GI50 (MOLT-4) was 3.6 µM (inactive) and the GI50 (SR) was 3 µM (inactive). The GI50 (COLO 205) was 1.79 µM (inactive), the GI50 (RXF 393) was 1.72 µM (inactive) and the GI50 (NCI-H23) was 6.49 µM (inactive). For the same compound, the GI50 (PC-3) was 3.35 µM (inactive), the GI50 (TK-10) was > 39.6 µM (inactive) and the GI50 (SK-MEL-2) was 2.65 µM (inactive). The GI50 (HOP-62) was > 38.9 µM (inactive), the GI50 (K562) was 3.23 µM (inactive) and the GI50 (SF-539) was 3.35 µM (inactive). The GI50 (M14) was 2 µM (inactive), the GI50 (IGROV-1) was > 22.3 µM (inactive) and the GI50 (MDA-N) was 9.51 µM (inactive). The GI50 (MDA-MB-231) was 3.11 µM (inactive), the GI50 (SF-268) was 5.6 µM (inactive) and the GI50 (NCI-H460) was 2.85 µM (inactive). For the same compound, the GI50 (SK-OV-3) was > 100 µM (inactive), the GI50 (Malme-3M) was 1.95 µM (inactive) and the GI50 (KM12) was 3.01 µM (inactive). For the same compound, the GI50 (SN12C) was > 25.3 µM (inactive), the GI50 (NCI/ADR-RES) was 3.68 µM (inactive) and the GI50 (CAKI-1) was 7.13 µM (inactive). The GI50 (Hs-578T) was 16.3 µM (inactive) and the GI50 (UACC-62) was 2.43 µM (inactive).

From ChEMBL document CHEMBL1201862, “PubChem BioAssay data set” (2004)
